# Data: patent US20240208932A1, “ARYLAMINO DERIVATIVE ESTROGEN RECEPTOR MODULATOR AND USE THEREOF” (XIZANG HAISCO PHARMACEUTICAL CO., LTD., priority 2021, published 2024)
# Columns and labels:
# ERα = ERα (Homo sapiens (Human), UniProt P03372); assay: Degradation effect of compounds on ERα in MCF-7 and CAMA-1 cells (automated western blot, 24 h); format: cell-based; details: ERα degradation in MCF-7 cells; for DC50: 24 hours; for Dmax at 0.1 µM: MCF7, @100 nM
# Experimental: 2. Degradation Effect of Compounds on ERα in MCF-7 and CAMA-1 Cells
# Breast cancer cells MCF-7 and CAMA-1 were purchased from ATCC, the cell media were all EMEM+10% FBS, and the cells were cultured in an incubator at 37° C. under 5% CO2. On the first day, the cells in an exponential phase were collected. With a 10% css-FBS phenol red-free medium, the cell suspension was adjusted to a corresponding concentration, plated at 300000 cells/well and incubated for 3 days. After 3 days, the liquid in the well was aspirated, and a 10% css-FBS phenol red-free medium containing the compound to be tested was added and cultured in an incubator at 37° C. under 5% CO2. After 24 hours, 60 μl of RIPA lysis solution (containing 1× protease inhibitor cocktail) was added to each well, lysed on ice for 15 minutes, and then centrifuged at 4° C. for 10 minutes at 12000 g. The supernatant protein samples were collected, and protein quantification was performed by a BCA method. ERα was detected using fully automatic protein expression quantitative analysis, which involved diluting the protein to be tested to 1.5 mg/mL. 4 μL of the diluted protein samples were added to 1 μL of 5×Master Mix (provided in the kit), and the prepared samples were denatured at 95° C. for 5 min and placed on ice for use. Antibody Diluent II (provided in the kit) was used to dilute the primary antibody, in which the dilution ratios of ERα (CST, 13258S) and β-actin (CST, 3700) antibodies were 1:40 and 1:500, respectively, the secondary antibody was a 1:1 mixture of goat anti-mouse and goat anti-rabbit secondary antibodies, and the chromogenic solution was a 1:1 mixture of Lumino-S and Peroxide. The prepared reagents were successively added to an assay plate according to instructions of the kit and detected on an instrument. Western blot band processing was performed using “Compass for SW”, a fully automatic protein expression quantitative analysis software, in which western blot bands were automatically simulated based on signal values. The proportion of ERα relative to the solvent control at different drug concentrations according to equation (1), wherein Acompound was the relative peak area of ERα in the treated group, and Asolvent was the relative peak area of ERα in the solvent control group.
# ERα%=Acompound/Asolvent×100 equation (1)
# DC50 calculation: Calculation was performed according to equation (1), and using Graphpad Prism 8.0 software, the compound concentration DC50 values at which the degradation rate of ERα was 50% were calculated using a non-linear four-parameter function (Non linear regression (curve fit)) (Table 1).
# CYP2C19 = CYP2C19 (Homo sapiens (Human), UniProt P33261); assay: CYP450 enzyme inhibition test, human liver microsomes; format: in vitro ADME; details: incubation concentration 0-50/100 μM
# Chain of CYP2C19 (P33261 whole entry): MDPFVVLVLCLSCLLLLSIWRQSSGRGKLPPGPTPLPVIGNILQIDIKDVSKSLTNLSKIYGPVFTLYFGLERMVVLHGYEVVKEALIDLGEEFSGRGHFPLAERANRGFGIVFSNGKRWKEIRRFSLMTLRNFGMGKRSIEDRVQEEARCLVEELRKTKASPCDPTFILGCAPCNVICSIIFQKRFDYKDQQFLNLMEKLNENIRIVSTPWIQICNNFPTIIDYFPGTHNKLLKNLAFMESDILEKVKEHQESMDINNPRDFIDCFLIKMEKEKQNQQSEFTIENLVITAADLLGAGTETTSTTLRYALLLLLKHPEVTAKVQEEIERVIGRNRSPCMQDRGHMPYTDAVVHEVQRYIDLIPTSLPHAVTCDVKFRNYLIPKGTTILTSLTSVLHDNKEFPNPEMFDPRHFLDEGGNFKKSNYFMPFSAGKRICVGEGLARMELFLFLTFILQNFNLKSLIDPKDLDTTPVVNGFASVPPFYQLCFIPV
# Experimental: 6. CYP450 Enzyme Inhibition Test
# The purpose of this study was to evaluate the effect of the test compound on the activity of five isoenzymes (CYP1A2, CYP2C9, CYP2C19, CYP2D6 and CYP3A4) of human liver microsomal cytochrome P450 (CYP) by using an in vitro testing system. The specific probe substrates of CYP450 isoenzymes were incubated with human liver microsomes and test compounds of different concentrations, and reduced nicotinamide adenine dinucleotide phosphate (NADPH) was added to initiate the reaction. After the completion of the reaction, the sample was treated and liquid chromatography-tandem mass spectrometry (LC-MS/MS) was used to quantitatively detect metabolites produced by specific substrates, changes in CYP enzyme activity were determined, and IC50 value was calculated to evaluate the inhibitory potential of the test compound on each CYP enzyme subtype.
# MCF-7 cells = assay: Inhibitory effect of compounds on the proliferation of MCF-7 cells (CellTiter-Glo, 7 days); format: cell-based; details: Homo sapiens, MCF7, 168 h, 7 days incubation
# Experimental: 1. Inhibitory Effect of Compounds on the Proliferation of MCF-7 Cells
# Breast cancer cells MCF-7 were purchased from ATCC, the cell media were all EMEM+10% FBS, and the cells were cultured in an incubator at 37° C. under 5% CO2. On the first day, cells in the exponential growth phase were collected and cultured in a 10% css-FBS phenol red-free medium without cytokines for 3 days. After the completion of culture, a 10% css-FBS phenol red-free medium was used to adjust the cell suspension to the corresponding concentration and same was plated to 1000 cells/well. P-estradiol and compounds of different concentrations were added. A plate without adding any reagent was taken and used as Day0 with a reading value RLUday0, determined with CellTiter-Glo kit, placed in an incubator and incubated for 7 days. After the incubation was completed, according to operation instructions for a CellTiter-Glo kit (Promega, G7573), 50 μL of CellTiter-Glo solutions, which were pre-melted and equilibrated to room temperature, were added to each well, and the mixtures were uniformly mixed for 2 min using a microplate shaker. The plate was placed at room temperature for 10 min, and then […] signal values were measured using a microplate reader (PHERAstar FSX). Chemiluminescence readouts were processed using origin9.2 software and the DoseResp function was used to calculate the GIsovalue for the inhibitory activity of compounds on the proliferation of cells (Table 1). The results were processed according to equation (1), the inhibition rate of the compound at different concentrations was calculated, and the GI50 value of the compound with a proliferation rate of 50% was calculated using origin9.2 software, wherein RLUcompound was the readout of the treated group, and RLUcontrol was the average value of the solvent control group.
# Growth %=(RLUcompound−RLUday0)/(RLUcontrol−RLUday0)×100 equation (1)
# Chain of ERα (P03372 whole entry): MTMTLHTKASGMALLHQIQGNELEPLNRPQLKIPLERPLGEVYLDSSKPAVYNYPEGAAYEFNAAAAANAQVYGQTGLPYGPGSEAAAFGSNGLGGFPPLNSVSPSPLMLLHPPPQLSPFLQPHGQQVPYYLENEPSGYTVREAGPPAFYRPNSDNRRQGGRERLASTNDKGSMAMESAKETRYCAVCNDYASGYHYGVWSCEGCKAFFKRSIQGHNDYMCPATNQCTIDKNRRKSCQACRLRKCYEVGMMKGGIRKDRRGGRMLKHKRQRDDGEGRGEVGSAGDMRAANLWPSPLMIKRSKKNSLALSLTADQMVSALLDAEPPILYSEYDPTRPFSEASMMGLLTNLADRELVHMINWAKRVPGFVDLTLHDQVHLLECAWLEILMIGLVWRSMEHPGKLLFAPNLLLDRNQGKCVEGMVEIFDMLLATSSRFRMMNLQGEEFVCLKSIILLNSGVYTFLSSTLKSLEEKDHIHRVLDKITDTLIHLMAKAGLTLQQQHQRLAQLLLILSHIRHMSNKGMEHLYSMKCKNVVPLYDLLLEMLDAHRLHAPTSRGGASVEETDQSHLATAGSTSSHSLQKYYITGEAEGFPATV
compound,measurement,setting,value
"C[C@@H]1Cc2c([nH]c3ccc(F)cc23)[C@@H](c2c(F)cc(N[C@H]3CCN(CCCF)C3)cc2F)N1CC(F)(F)F [Compound 18, (S)—N-(3,5-difluoro-4-((1R,3R)-6-fluoro-3-methyl-2-(2,2,2-trifluoroethyl)-2,3,4,9-tetrahydro-1H-pyrido[3,4-b]indol-1-yl)phenyl)-1-(3-fluoropropyl)pyrrolidin-3-amine]",DC50,ERα,0.47 nM
same,Dmax at 0.1 µM,ERα,70%
"C[C@@H]1Cc2c([nH]c3cc(F)ccc23)[C@@H](c2c(F)cc(N[C@H]3CCN(CCCF)C3)cc2F)N1CC(F)(F)F [Compound 32, (S)—N-(3,5-difluoro-4-((1R,3R)-7-fluoro-3-methyl-2-(2,2,2-trifluoroethyl)-2,3,4,9-tetrahydro-1H-pyrido[3,4-b]indol-1-yl)phenyl)-1-(3-fluoropropyl)pyrrolidin-3-amine]",DC50,ERα,1.23 nM
same,Dmax at 0.1 µM,ERα,88%
"C#Cc1ccc2c3c([nH]c2c1)[C@@H](c1c(F)cc(N[C@H]2CCN(CCCF)C2)cc1F)N(CC(F)(F)F)[C@H](C)C3 [Compound 43, (S)—N-(4-((1R,3R)-7-ethynyl-3-methyl-2-(2,2,2-trifluoroethyl)-2,3,4,9-tetrahydro-1H-pyrido[3,4-b]indol-1-yl)-3,5-difluorophenyl)-1-(3-fluoropropyl)pyrrolidin-3-amine]",IC50,CYP2C19,> 50000 nM
same,GI50,MCF-7 cells,0.219 nM
